Experimental data as given in US20260001928A1 (CORTERIA PHARMACEUTICALS, priority 2022, published 2026).
*1 amine or outer side, *2 acyl side, *3 side chain or, on linkers, in order; H or OH if unused. Where a SMILES comes first, the peptide text is derived from it. Side-chain parts run from the residue outwards. [ ]: non-standard residue; d: D form. The star is where a group is joined. C20 diacid = O=C(O)CCCCCCCCCCCCCCCCCCC(=O)*; C18 diacid = O=C(O)CCCCCCCCCCCCCCCCC(=O)*; C16 diacid = O=C(O)CCCCCCCCCCCCCCC(=O)*; γGlu = O=C(O)[C@H](CCC(=O)[*:2])N[*:1]; NMeI = CC[C@H](C)[C@H](NC)C(=O)O; Api = NC1(C(=O)O)CCNCC1; Pentanoyl = CCCCC(=O)*; AEEA = NCCOCCOCC(=O)O; Aib = CC(C)(N)C(=O)O

Experiments:
[1] = target: T1, human CRF2a receptor (Homo sapiens, UniProt Q13324); test: Activity at human CRF2a receptor, cAMP functional assay in TeloHEAC cells; assay type: cell-based; conditions: TeloHEAC cells stably expressing human CRF2a receptor, relative to urocortin 2 (100 nM = 100%)
T1 construct: expressed in transfected cells; host or cells: TeloHEAC cells
T1 sequence (Q13324 1-411): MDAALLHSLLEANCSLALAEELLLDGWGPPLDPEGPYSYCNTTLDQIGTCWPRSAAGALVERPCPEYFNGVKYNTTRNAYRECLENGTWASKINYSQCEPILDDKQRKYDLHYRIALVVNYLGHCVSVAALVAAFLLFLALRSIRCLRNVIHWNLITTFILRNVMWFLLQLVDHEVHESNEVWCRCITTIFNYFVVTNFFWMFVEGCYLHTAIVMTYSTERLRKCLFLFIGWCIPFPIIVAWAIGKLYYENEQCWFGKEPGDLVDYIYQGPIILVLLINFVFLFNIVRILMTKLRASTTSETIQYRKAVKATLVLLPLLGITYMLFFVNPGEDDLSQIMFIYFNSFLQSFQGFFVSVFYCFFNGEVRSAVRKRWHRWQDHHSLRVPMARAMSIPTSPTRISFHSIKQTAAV
Summary of the method: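 TeloHEAC cells stably expressing human CRF2a (10000 cells/well, suspended in HBSS/20 mM HEPES with 2 mM IBMX) were exposed to compounds for 30 min at 37 °C. cAMP was read as the 665/620 nm fluorescence ratio after 1 h at room temperature. EC50 was derived relative to 100 nM urocortin 2, set as 100%.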

[2] = target: T2, CFR1R receptor (Homo sapiens, UniProt P34998); test: Activity at anti-target CFR1R receptor, cAMP assay in CRF1R-overexpression CHO-K1 cells; assay type: cell-based; conditions: 100% = Sauvagine at 100 nM; for EC50: cAMP
T2 construct: host or cells: CHO-K1 (clone 2)
T2 sequence (P34998 24-415): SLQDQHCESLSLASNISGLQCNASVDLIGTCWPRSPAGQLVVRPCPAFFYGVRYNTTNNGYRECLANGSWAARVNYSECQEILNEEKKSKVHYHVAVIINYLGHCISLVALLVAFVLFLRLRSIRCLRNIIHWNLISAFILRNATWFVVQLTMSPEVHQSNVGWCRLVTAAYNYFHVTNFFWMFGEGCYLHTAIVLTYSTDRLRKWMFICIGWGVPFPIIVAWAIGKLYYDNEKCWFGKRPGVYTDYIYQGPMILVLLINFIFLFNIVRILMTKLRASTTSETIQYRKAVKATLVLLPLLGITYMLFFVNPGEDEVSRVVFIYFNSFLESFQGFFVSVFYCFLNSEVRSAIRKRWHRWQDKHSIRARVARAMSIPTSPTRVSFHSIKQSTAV
Summary of the method: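 Grow clone 2 to near confluence at 37° C. under 5% CO2 in F12 (Hams) with 10% FBS and G418, harvest, and freeze in 10% DMSO. Thaw and plate at 4000 cells/well. Then proceed per the TeloHAEC method, normalising to Sauvagine 100 nM as maximum.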

SMILES | EC50 [1] | Emax (% I) [2] | EC50 [2]
CC[C@H](C)[C@H](NC(C)=O)C(=O)N[C@H](C(=O)N[C@@H](CC(C)C)C(=O)N[C@@H](CO)C(=O)N[C@@H](CC(C)C)C(=O)N[C@@H](CC(=O)O)C(=O)N[C@@H](C(=O)N1CCC[C@H]1C(=O)N[C@H](C(=O)N[C@@H](CCCCN)C(=O)N[C@@H](CC(C)C)C(=O)N[C@@H](CCCCNC(=O)CC[C@H](NC(=O)CCCCCCCCCCCCCCCCC(=O)O)C(=O)O)C(=O)N[C@@H](CCCCN)C(=O)N[C@H](C(=O)N[C@@H](CC(C)C)C(=O)N[C@@H](CC(C)C)C(=O)N[C@@H](CCC(=O)O)C(=O)N[C@@H](CCC(N)=O)C(=O)N[C@@H](CCC(=O)O)C(=O)N[C@@H](CCCCN)C(=O)N[C@@H](CCC(N)=O)C(=O)N[C@@H](CCCCN)C(=O)N[C@@H](CCCCN)C(=O)N[C@@H](CCC(N)=O)C(=O)N[C@@H](CCCNC(=N)N)C(=O)N[C@@H](CCC(=O)O)C(=O)N[C@@H](CCC(N)=O)C(=O)N[C@@H](C)C(=O)N[C@@H](CCC(=O)O)C(=O)N[C@H](C(=O)N[C@@H](CC(N)=O)C(=O)NC1(C(=O)N[C@@H](CCC(N)=O)C(=O)N[C@H](C(=O)N[C@@H](CC(C)C)C(=O)N[C@@H](C)C(=O)N[C@@H](CCC(N)=O)C(=O)N[C@H](C(N)=O)C(C)C)[C@@H](C)CC)CCNCC1)[C@@H](C)O)[C@@H](C)CC)[C@@H](C)CC)C(C)C)C(C)C [compound 129] (Ac-IVLSLD[dV]PIKLK([γGlu-C18 diacid])KILLEQEKQKKQREQAETN[Api]QILAQV-NH2) | 0.14 nM | 39 % I | 
CC[C@H](C)[C@H](NC(C)=O)C(=O)N[C@H](C(=O)N[C@@H](CC(C)C)C(=O)N[C@@H](CO)C(=O)N[C@@H](CC(C)C)C(=O)N[C@@H](CC(=O)O)C(=O)N[C@@H](C(=O)N1CCC[C@H]1C(=O)N[C@H](C(=O)N[C@@H](CCCCN)C(=O)N[C@@H](CC(C)C)C(=O)N[C@@H](CCCCNC(=O)COCCOCCNC(=O)COCCOCCNC(=O)CC[C@H](NC(=O)CCCCCCCCCCCCCCCCC(=O)O)C(=O)O)C(=O)N[C@@H](CCCCN)C(=O)N[C@H](C(=O)N[C@@H](CC(C)C)C(=O)N[C@@H](CC(C)C)C(=O)N[C@@H](CCC(=O)O)C(=O)N[C@@H](CCC(N)=O)C(=O)N[C@@H](CCC(=O)O)C(=O)N[C@@H](CCCCN)C(=O)N[C@@H](CCC(N)=O)C(=O)N[C@@H](CCCCN)C(=O)NC(C)(C)C(=O)N[C@@H](CCC(N)=O)C(=O)N[C@@H](CCCNC(=N)N)C(=O)N[C@@H](CCC(=O)O)C(=O)N[C@@H](CCC(N)=O)C(=O)N[C@@H](C)C(=O)N[C@@H](CCC(=O)O)C(=O)N[C@H](C(=O)N[C@@H](CC(N)=O)C(=O)NC(C)(C)C(=O)N[C@@H](CCC(N)=O)C(=O)N[C@H](C(=O)N[C@@H](CC(C)C)C(=O)N[C@@H](C)C(=O)N[C@@H](CCC(N)=O)C(=O)N[C@H](C(N)=O)C(C)C)[C@@H](C)CC)[C@@H](C)O)[C@@H](C)CC)[C@@H](C)CC)C(C)C)C(C)C [compound 197] (Ac-IVLSLD[dV]PIKLK([AEEA-AEEA-γGlu-C18 diacid])KILLEQEKQK[Aib]QREQAETN[Aib]QILAQV-NH2) | 1.28 nM | 5 % I | > 250 nM
CCCCC(=O)N[C@H](C(=O)N[C@@H](CC(C)C)C(=O)N[C@@H](CO)C(=O)N[C@@H](CC(C)C)C(=O)N[C@@H](CC(=O)O)C(=O)N[C@@H](C(=O)N1CCC[C@H]1C(=O)N[C@H](C(=O)NCC(=O)N[C@@H](CC(C)C)C(=O)N[C@@H](CCCCNC(=O)CC[C@H](NC(=O)CCCCCCCCCCCCCCCCCCC(=O)O)C(=O)O)C(=O)N[C@@H](CCCCN)C(=O)N[C@H](C(=O)N[C@@H](CC(C)C)C(=O)N[C@@H](CC(C)C)C(=O)N[C@@H](CCC(=O)O)C(=O)N[C@@H](CCC(N)=O)C(=O)N[C@@H](CCC(=O)O)C(=O)N[C@@H](CCCCN)C(=O)N[C@@H](CCC(N)=O)C(=O)N[C@@H](CCCCN)C(=O)N[C@@H](CCCCN)C(=O)N[C@@H](CCC(N)=O)C(=O)N[C@@H](CCCNC(=N)N)C(=O)N[C@@H](CCC(=O)O)C(=O)N[C@@H](CCC(N)=O)C(=O)N[C@@H](C)C(=O)N[C@@H](CCC(=O)O)C(=O)N[C@H](C(=O)N[C@@H](CC(N)=O)C(=O)NC(C)(C)C(=O)N[C@@H](CCC(N)=O)C(=O)N[C@H](C(=O)N[C@@H](CC(C)C)C(=O)N[C@@H](C)C(=O)N[C@@H](CCC(N)=O)C(=O)N[C@H](C(N)=O)C(C)C)[C@@H](C)CC)[C@@H](C)O)[C@@H](C)CC)[C@@H](C)CC)C(C)C)C(C)C [compound 228] (Pentanoyl-VLSLD[dV]PIGLK([γGlu-C20 diacid])KILLEQEKQKKQREQAETN[Aib]QILAQV-NH2) | 0.19 nM | 62 % I | 
CC[C@H](C)[C@H](NC)C(=O)N[C@H](C(=O)N[C@@H](CC(C)C)C(=O)N[C@@H](CO)C(=O)N[C@@H](CC(C)C)C(=O)N[C@@H](CC(=O)O)C(=O)N[C@@H](C(=O)N1CCC[C@H]1C(=O)N[C@H](C(=O)N[C@@H](CCCCN)C(=O)N[C@@H](CC(C)C)C(=O)N[C@@H](CCCCNC(=O)CC[C@H](NC(=O)CCCCCCCCCCCCCCCCC(=O)O)C(=O)O)C(=O)N[C@@H](CCCCN)C(=O)N[C@H](C(=O)N[C@@H](CC(C)C)C(=O)N[C@@H](CC(C)C)C(=O)N[C@@H](CCC(=O)O)C(=O)N[C@@H](CCC(N)=O)C(=O)N[C@@H](CCC(=O)O)C(=O)N[C@@H](CCCCN)C(=O)N[C@@H](CCC(N)=O)C(=O)N[C@@H](CCCCN)C(=O)N[C@@H](CCCCN)C(=O)N[C@@H](CCC(N)=O)C(=O)N[C@@H](CCCNC(=N)N)C(=O)N[C@@H](CCC(=O)O)C(=O)N[C@@H](CCC(N)=O)C(=O)N[C@@H](C)C(=O)N[C@@H](CCC(=O)O)C(=O)N[C@H](C(=O)N[C@@H](CC(N)=O)C(=O)N[C@@H](CCC(=O)O)C(=O)N[C@@H](CCC(N)=O)C(=O)N[C@H](C(=O)N[C@@H](CC(C)C)C(=O)N[C@@H](C)C(=O)N[C@@H](CCC(N)=O)C(=O)N[C@H](C(N)=O)C(C)C)[C@@H](C)CC)[C@@H](C)O)[C@@H](C)CC)[C@@H](C)CC)C(C)C)C(C)C [compound 142] (H-[NMeI]VLSLD[dV]PIKLK([γGlu-C18 diacid])KILLEQEKQKKQREQAETNEQILAQV-NH2) | 0.07 nM | 3 % I | > 250 nM
CC[C@H](C)[C@H](NC(C)=O)C(=O)N[C@H](C(=O)N[C@@H](CC(C)C)C(=O)N[C@@H](CO)C(=O)N[C@@H](CC(C)C)C(=O)N[C@@H](CC(=O)O)C(=O)N[C@@H](C(=O)N1CCC[C@H]1C(=O)N[C@H](C(=O)N[C@@H](CCCCN)C(=O)N[C@@H](CC(C)C)C(=O)N[C@@H](CCCCNC(=O)CC[C@H](NC(=O)CCCCCCCCCCCCCCC(=O)O)C(=O)O)C(=O)N[C@@H](CCCCN)C(=O)N[C@H](C(=O)N[C@@H](CC(C)C)C(=O)N[C@@H](CC(C)C)C(=O)N[C@@H](CCC(=O)O)C(=O)N[C@@H](CCC(N)=O)C(=O)N[C@@H](CCC(=O)O)C(=O)N[C@@H](CCCCN)C(=O)N[C@@H](CCC(N)=O)C(=O)N[C@@H](CCCCN)C(=O)N[C@@H](CCC(=O)O)C(=O)N[C@@H](CCC(N)=O)C(=O)N[C@@H](CCCNC(=N)N)C(=O)N[C@@H](CCC(=O)O)C(=O)N[C@@H](CCC(N)=O)C(=O)N[C@@H](C)C(=O)N[C@@H](CCC(=O)O)C(=O)N[C@H](C(=O)N[C@@H](CC(N)=O)C(=O)NC(C)(C)C(=O)N[C@@H](CCC(N)=O)C(=O)N[C@H](C(=O)N[C@@H](CC(C)C)C(=O)N[C@@H](C)C(=O)N[C@@H](CCC(N)=O)C(=O)N[C@H](C(N)=O)C(C)C)[C@@H](C)CC)[C@@H](C)O)[C@@H](C)CC)[C@@H](C)CC)C(C)C)C(C)C [compound 168] (Ac-IVLSLD[dV]PIKLK([γGlu-C16 diacid])KILLEQEKQKEQREQAETN[Aib]QILAQV-NH2) | 0.8 nM | 3 % I | > 250 nM
